Measurements taken from US11492325B2, “Compounds as inhibitors of sodium channels” (Human BioMolecular Research Institute, priority 2016, dated 2022).
Like-named read-outs stand apart in the source and are kept apart here.

Tests used:
[1] = Metabolic stability in mouse liver microsomes; type: in vitro ADME; settings: for half-life at 50 μM: mouse, liver microsomes, pH 7.4, NADPH-generating system, 37° C., read-out: Liver Microsomes t1/2 Mouse
Procedure: (§1) A typical incubation contained rat, mouse, dog or human liver microsomes (0.4-0.5 mg of protein), 100 mM potassium phosphate buffer (pH7.4), 50 μM test compound, an NADPH-generating system consisting of 0.5 mM NADP^+, 0.5 mM glucose-6-phosphate, 1 IU/mL glucose-6-phosphate dehydrogenase, 1 mg/mL diethylenetriaminepentaaceticacid (DETAPAC), and 3 mM MgCl2 in a final incubation volume of 0.25 mL. […] After centrifugation at 3000 rpm for 5 min, the organic fraction was collected, the solvent was removed with a stream of argon and the residue was reconstituted in 125 μL of MeOH and 125 μL H2O, mixed thoroughly, centrifuged at 13,000 rpm for 5 min and analyzed by high performance liquid chromatography. Samples were run on a Hitachi D-7000 HPLC system using a L-7100 analytical pump, L-7400 UV-Visible variable wavelength detector, and L-7600 automatic sample injector. […] Disappearance of the analyte was monitored over time. A plot of the area under the curve for the normalized analyte versus time afforded the half-life values and kapp.

[2] = Metabolic stability in human liver microsomes; type: in vitro ADME
Procedure: as §1

[3] = Metabolic stability in dog liver microsomes; type: in vitro ADME
Procedure: as §1

[4] = Metabolic stability in rat liver microsomes; type: in vitro ADME; settings: for half-life at 50 μM: rat, liver microsomes, pH 7.4, NADPH-generating system, 37° C., read-out: Liver Microsomes t1/2 Rat
Procedure: as §1

[5] = target: T1, hERG potassium channel (IKr) (Homo sapiens, UniProt Q12809); assay: Automated patch clamp, hERG (IKr) expressed in CHO cells; settings: hERG (IKr) IC50, CHO cells, Example 2
T1 sequence (Q12809 whole entry): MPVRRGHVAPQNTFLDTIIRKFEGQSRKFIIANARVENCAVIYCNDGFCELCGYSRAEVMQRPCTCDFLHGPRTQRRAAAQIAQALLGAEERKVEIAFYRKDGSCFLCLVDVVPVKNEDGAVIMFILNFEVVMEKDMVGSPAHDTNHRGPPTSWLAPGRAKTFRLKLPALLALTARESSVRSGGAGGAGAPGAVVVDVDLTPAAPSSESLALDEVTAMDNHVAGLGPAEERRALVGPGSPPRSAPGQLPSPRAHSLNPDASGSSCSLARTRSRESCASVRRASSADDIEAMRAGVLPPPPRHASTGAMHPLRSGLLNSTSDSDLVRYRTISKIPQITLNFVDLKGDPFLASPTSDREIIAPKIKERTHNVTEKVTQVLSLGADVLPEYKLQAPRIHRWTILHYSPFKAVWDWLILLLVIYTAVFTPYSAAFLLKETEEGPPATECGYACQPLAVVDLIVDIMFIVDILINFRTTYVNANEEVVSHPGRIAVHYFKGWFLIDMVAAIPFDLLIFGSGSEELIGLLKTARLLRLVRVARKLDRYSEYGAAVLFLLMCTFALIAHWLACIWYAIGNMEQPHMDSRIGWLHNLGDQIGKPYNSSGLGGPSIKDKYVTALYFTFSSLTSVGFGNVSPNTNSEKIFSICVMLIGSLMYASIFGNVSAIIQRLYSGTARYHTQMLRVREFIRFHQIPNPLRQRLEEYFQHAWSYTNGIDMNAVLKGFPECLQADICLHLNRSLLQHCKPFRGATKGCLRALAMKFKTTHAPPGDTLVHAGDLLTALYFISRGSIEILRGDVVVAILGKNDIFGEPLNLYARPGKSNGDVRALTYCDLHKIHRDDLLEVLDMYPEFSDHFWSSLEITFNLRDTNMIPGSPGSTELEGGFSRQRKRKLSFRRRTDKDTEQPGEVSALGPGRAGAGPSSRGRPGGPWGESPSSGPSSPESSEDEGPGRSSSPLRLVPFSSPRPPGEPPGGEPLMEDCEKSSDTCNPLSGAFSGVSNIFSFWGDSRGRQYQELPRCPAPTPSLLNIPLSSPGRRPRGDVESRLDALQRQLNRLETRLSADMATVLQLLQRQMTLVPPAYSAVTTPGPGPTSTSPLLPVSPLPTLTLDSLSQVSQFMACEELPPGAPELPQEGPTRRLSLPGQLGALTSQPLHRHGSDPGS

[6] = target: T1, hERG potassium channel (IKr)
[7] = tested on: cardiomyocytes derived from hiPSCs from a LQTS3 patient
[8] = tested on: Male BALBc mice; settings: mice, i.p.
Excerpt: Male BALBc mice (20-22 g) were used throughout these studies. The animals were maintained in a temperature-controlled room with 12-hr periods of light and darkness and had continuous access to water and animal food. […] Groups contained 2-4 animals.

[9] = tested on: normal human induced pluripotent stem cell (hiPSC) cardiomyocyte
[10] = tested on: cardiomyocytes derived from hiPSCs from a LQTS3 patient; assay: cells; settings: Homo sapiens, Cardiomyocyte, read-out: LQT-IC50 (uM)-Shortening
[11] = Solubility (water; 10:30:60% DMSO:PEG400:water vehicle); type: physicochemical
[12] = target: Nav1.5 sodium channel, peak current (INaP) (Homo sapiens, UniProt Q14524, form not given); assay: in vitro; settings: Peak Na+ (INaP) IC50
Summary of the method: (§2)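 Conventional whole-cell patch clamp was performed on HEK293 cells transfected with Nav1.5 and plated on 0.1% gelatin-coated dishes. Values were reported as IC50 ± STD.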

[13] = target: Nav1.5 sodium channel transfected into HEK293 cells (Homo sapiens, UniProt Q14524); assay: in vitro
Summary of the method: as §2

[14] = Metabolism in human hepatic S9; settings: 0.5 mg of protein
Procedure: as §1
(§3) Microsomes contain CYPs and FMO metabolic enzymes. S9 contains soluble enzymes (i.e., aldehyde oxidase, MAO, etc.).

[15] = Metabolism in rat hepatic S9; type: in vitro ADME; settings: 0.5 mg of protein
Procedure: as §1, §3

[16] = Metabolism in dog hepatic S9; type: in vitro ADME; settings: 0.5 mg of protein
Procedure: as §1, §3

[17] = Metabolism in mouse hepatic S9; settings: 0.5 mg of protein
Procedure: as §1, §3

[18] = target: Human FMO3 (Homo sapiens, UniProt P31513); settings: 15 μg enzyme/incubation; 30 mins, 37° C.; nmol metabolism/incubation
Sequence of Human FMO3 (P31513 whole entry): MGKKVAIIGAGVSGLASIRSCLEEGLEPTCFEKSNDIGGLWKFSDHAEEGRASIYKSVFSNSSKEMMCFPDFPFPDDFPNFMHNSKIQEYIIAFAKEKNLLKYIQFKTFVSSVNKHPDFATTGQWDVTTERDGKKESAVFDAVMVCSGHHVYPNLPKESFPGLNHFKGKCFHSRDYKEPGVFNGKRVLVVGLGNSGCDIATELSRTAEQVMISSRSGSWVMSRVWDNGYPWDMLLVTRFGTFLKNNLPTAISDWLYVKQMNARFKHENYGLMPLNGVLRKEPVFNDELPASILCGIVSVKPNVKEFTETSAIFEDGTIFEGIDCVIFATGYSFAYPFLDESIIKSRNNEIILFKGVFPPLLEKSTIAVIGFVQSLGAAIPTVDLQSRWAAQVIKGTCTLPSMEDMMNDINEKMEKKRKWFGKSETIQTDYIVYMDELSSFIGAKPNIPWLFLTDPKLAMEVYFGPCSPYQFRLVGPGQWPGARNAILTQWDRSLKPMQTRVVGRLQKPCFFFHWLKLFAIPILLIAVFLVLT

[19] = target: T2, Human FMO1 (Homo sapiens, UniProt Q01740); assay: Metabolism with human FMO1 (nmol metabolism/incubation); settings: 15 μg enzyme/incubation; 30 mins, 37° C.; nmol metabolism/incubation
T2 sequence (Q01740 1-532): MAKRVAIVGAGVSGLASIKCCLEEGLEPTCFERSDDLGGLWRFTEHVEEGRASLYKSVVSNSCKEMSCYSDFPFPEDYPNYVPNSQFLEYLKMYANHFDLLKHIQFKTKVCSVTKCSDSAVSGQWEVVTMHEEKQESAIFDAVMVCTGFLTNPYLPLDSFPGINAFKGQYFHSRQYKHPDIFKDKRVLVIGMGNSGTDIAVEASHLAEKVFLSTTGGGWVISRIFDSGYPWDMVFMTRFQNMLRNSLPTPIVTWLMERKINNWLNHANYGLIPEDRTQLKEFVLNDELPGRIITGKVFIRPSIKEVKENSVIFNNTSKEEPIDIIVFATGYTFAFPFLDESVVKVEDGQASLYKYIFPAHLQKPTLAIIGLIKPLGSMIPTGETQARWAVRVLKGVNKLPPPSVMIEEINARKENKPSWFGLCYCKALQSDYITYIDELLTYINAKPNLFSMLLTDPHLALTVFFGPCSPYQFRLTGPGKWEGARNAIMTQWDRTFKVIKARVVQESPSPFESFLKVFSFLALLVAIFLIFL

[20] = target: CYP3A4 (Homo sapiens, UniProt P08684); assay: Metabolism with highly purified CYP3A4 (HPLC); settings: 3 pmol enzyme/incubation; 30 mins, 37° C.; nmol metabolism/incubation
Sequence of CYP3A4 (P08684 whole entry): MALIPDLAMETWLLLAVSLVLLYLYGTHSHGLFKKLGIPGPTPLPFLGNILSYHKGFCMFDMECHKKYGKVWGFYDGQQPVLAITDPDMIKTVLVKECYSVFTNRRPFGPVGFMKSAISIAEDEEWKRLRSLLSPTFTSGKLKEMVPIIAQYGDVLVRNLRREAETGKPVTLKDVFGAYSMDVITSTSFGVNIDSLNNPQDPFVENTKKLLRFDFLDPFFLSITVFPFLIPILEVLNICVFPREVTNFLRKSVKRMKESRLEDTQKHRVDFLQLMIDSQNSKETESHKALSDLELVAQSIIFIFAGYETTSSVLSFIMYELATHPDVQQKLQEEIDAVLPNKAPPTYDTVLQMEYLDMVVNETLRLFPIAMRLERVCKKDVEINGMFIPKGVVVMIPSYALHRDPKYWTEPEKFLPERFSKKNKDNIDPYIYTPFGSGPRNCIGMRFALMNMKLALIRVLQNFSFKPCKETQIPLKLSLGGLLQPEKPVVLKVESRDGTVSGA

[21] = 'No AP' wraps to 'No AP shortening'

NC(COc1cc(C(F)(F)F)cc(C(F)(F)F)c1)c1ccccc1 (centres unmarked) [drawing 302]
parent after 60 min, Mouse liver microsomes (Stable) ([1]; 60 min): Stable >95% parent after 60 min
parent after 60 min, Human liver microsomes (Stable) [2]: Stable >95% parent after 60 min
half-life at 50 μM ([3]; dog, liver microsomes, pH 7.4, 50 μM, NADPH-generating system, 37° C., read-out: Liver Microsomes t1/2 Dog): 1.93 h
parent after 60 min, Rat liver microsomes (Stable) ([4]; 60 min): Stable >95% parent after 60 min

Cc1ccncc1OCC(N)c1ccccc1.Cl (centres unmarked) [Compound 88]
IC50 [5]: 11.2 µM
DKr/NaL [6]: 10.7
DNaP/Kr [6]: 7.7
LQT-Cessation Dose [7]: None
LQT-Fold Shortening ([7]; LQT3 cardiomyocytes): 1.287
behavioral/toxic effects at 200 mg/kg ([8]; 200 mg/kg): slight lethargy
tolerability ([8]; 30-100 mg/kg, 24 hr): well-tolerated
Cessation of Beating [9]: None
WT-Fold Prolongation ([9]; APD, normal hiPSC cardiomyocytes): 1.52
IC50 [10]: 12.8 µM
solubility (in words) [11]: good solubility
IC50 [12]: 90.9 µM
IC50 [13]: 1.04 µM
DNap/NaL ([13]; ratio peak/late IC50, Example 2): 87.4

Cc1ccccc1OCC(N)c1ccccc1 (centres unmarked) [drawing 303]
half-life at 50 μM [1]: 3.47 h
half-life at 50 μM ([2]; human, liver microsomes, pH 7.4, 50 μM, NADPH-generating system, 37° C., read-out: Liver Microsomes t1/2 Human): 2.35 h
half-life at 50 μM [4]: 7.92 h

NC(COc1ccccc1C(F)(F)F)c1ccccc1 (centres unmarked) [drawing 304]
half-life at 50 μM [1]: 3.27 h
parent after 60 min, Human liver microsomes (Stable) [2]: Stable >95% parent after 60 min
parent after 60 min, Dog liver microsomes (Stable) ([3]; 60 min): Stable >95% parent after 60 min
half-life at 50 μM [4]: 3.3 h

Cc1ccccc1OCC(N)c1ccccc1 (centres unmarked) [drawing 307]
% Metabolism Human S9 [14]: 7.0 ± 0.1%
% Metabolism Rat S9 [15]: 97.8 ± 19.5%
% Metabolism Dog S9 [16]: 98.0 ± 28.1%
% Metabolism Mouse S9 [17]: 34.6%

NC(COc1ccccc1C(F)(F)F)c1ccccc1 (centres unmarked) [drawing 308]
% Metabolism Human S9 [14]: 28.0 ± 7.4%
% Metabolism Rat S9 [15]: 15.4 ± 10.5%
% Metabolism Dog S9 [16]: 51.0 ± 19.1%
% Metabolism Mouse S9 [17]: 55.0 ± 22.4%

Cc1cc(C)cc(OCC(N)c2ccccc2)c1 (centres unmarked) [drawing 306]
% Metabolism Human S9 [14]: 39.2 ± 8.4%
% Metabolism Rat S9 [15]: 45.0 ± 14.5%
% Metabolism Dog S9 [16]: 35.8 ± 7.0%
% Metabolism Mouse S9 [17]: 13.6 ± 5.0%

Cl.[2H]C(N)(COc1cc(C)cc(C)c1)c1ccccc1 (centres unmarked) [Compound 104b]
LQT-Fold Shortening [7, 21]: 1.280
LQT-Shortening Dose [7, 21]: 2.5 µM
LQT-Cess. Dose ([7]; deuterated vs non-deuterated): 22 µM
action potential shortening compared to unlabeled compound ([7]; deuterium-labeled analogs): equal to or greater action potential shortening
WT-Prolong. Dose ([9]; 'No AP' wraps to 'No AP Prolong.'): No AP
WT-Cess. Dose ([9]; deuterated vs non-deuterated): 22 µM
WT-EC50 (μM)-Prolong. ([9]; deuterated vs non-deuterated, 'No AP' wraps to 'No AP prolongation'): No AP
Human FMO3 (nmol/incub) [18]: 0.05 nmol/incub
Human FMO1 (nmol/incub) [19]: 1.0 nmol/incub
Human CYP3A4 (nmol/incub) [20]: 0.3 nmol/incub
